{"source": "the supplement of paper PMC10949913", "key": {"CU-ACC1": {"system": "CU-ACC1", "test": "area under concentration-response curve (viability) (AUC (a.u.)); higher = less active", "details": "48 h", "procedure,_shortened": "(§1)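 Luminescence from CellTiter-Glo, read after 48 h, measured three adrenocortical carcinoma cell lines treated in 1,536-well plates with library compounds at 11 concentrations. Values were normalised per plate to vehicle and empty-well controls. The AC50 and area under the curve come from fitted concentration-response curves in inhibitory or non-responding classes only.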"}, "NCI-H295R": {"system": "NCI-H295R", "test": "area under concentration-response curve (viability) (AUC (a.u.)); higher = less active", "details": "48 h", "procedure,_shortened": "as §1"}}}
{"smiles": "COc1nc(N)nc2c1ncn2C1OC(CO)C(O)C1O", "note": "(stereo unspecified)", "values": [{"measurement": "area under concentration-response curve", "setting": "CU-ACC1", "result": 461}, {"measurement": "area under concentration-response curve", "setting": "NCI-H295R", "result": 469}]}
{"smiles": "COC1=CC=C2C(=CC=NC2=C1)OC3=CC=C(NC(=O)\\C4=C(C)\\N(CC(C)(C)O)N(C4=O)C5=CC=CC=C5)C=C3F", "values": [{"measurement": "area under concentration-response curve", "setting": "CU-ACC1", "result": 398}, {"measurement": "area under concentration-response curve", "setting": "NCI-H295R", "result": 459}]}
{"smiles": "O=C(CCNC(=O)c1ccc(OC(F)(F)F)cc1)N[C@@H]1CCCc2ccccc21", "values": [{"measurement": "area under concentration-response curve", "setting": "CU-ACC1", "result": 149}, {"measurement": "area under concentration-response curve", "setting": "NCI-H295R", "result": 81}]}
{"smiles": "COc1ccc(C2(C#N)CCC(C(=O)O)CC2)cc1OC1CCCC1", "note": "(stereo unspecified)", "values": [{"measurement": "area under concentration-response curve", "setting": "CU-ACC1", "result": 548}, {"measurement": "area under concentration-response curve", "setting": "NCI-H295R", "result": 606}]}
{"smiles": "OC[C@H]1O[C@H](C[C@@H]1O)[N]2C=NC3=C2\\N=C/NC[C@H]3O", "values": [{"measurement": "area under concentration-response curve", "setting": "CU-ACC1", "result": 485}, {"measurement": "area under concentration-response curve", "setting": "NCI-H295R", "result": 509}]}
{"smiles": "O=C(Nc1cccc(C(F)(F)F)c1)c1cccc2cc(Oc3cc(CO)ncn3)ccc12", "values": [{"measurement": "area under concentration-response curve", "setting": "CU-ACC1", "result": 516}, {"measurement": "area under concentration-response curve", "setting": "NCI-H295R", "result": 579}]}
{"smiles": "N[C@@H](Cc1c[nH]c2ccc(O)cc12)C(=O)O", "values": [{"measurement": "area under concentration-response curve", "setting": "CU-ACC1", "result": 483}, {"measurement": "area under concentration-response curve", "setting": "NCI-H295R", "result": 567}]}
{"smiles": "CNC(=O)c1cc(Oc2ccc(NC(=O)Nc3cc(C(C)(C)C)nn3-c3ccc4ncccc4c3)c(F)c2)ccn1", "values": [{"measurement": "area under concentration-response curve", "setting": "CU-ACC1", "result": 496}, {"measurement": "area under concentration-response curve", "setting": "NCI-H295R", "result": 561}]}
{"smiles": "CCCCOCCOc1nc(-c2ccc(C(=O)O)c(F)c2)sc1C", "values": [{"measurement": "area under concentration-response curve", "setting": "CU-ACC1", "result": 367}, {"measurement": "area under concentration-response curve", "setting": "NCI-H295R", "result": 399}]}
{"smiles": "c1ccc(-c2oc3ncnc(NC[C@@H]4CCCO4)c3c2-c2ccccc2)cc1", "values": [{"measurement": "area under concentration-response curve", "setting": "CU-ACC1", "result": 517}, {"measurement": "area under concentration-response curve", "setting": "NCI-H295R", "result": 572}]}
{"smiles": "CCOC(=O)O[C@@]1(CC[C@H]2[C@@H]3CCC/4=C/C(=O)/C=C\\[C@]4(C)[C@H]3[C@@H](O)C[C@]12C)C(=O)OCCl", "values": [{"measurement": "area under concentration-response curve", "setting": "CU-ACC1", "result": 364}, {"measurement": "area under concentration-response curve", "setting": "NCI-H295R", "result": 395}]}
{"smiles": "CCCCC[C@H](O)/C=C/[C@H]1[C@H](O)CC(=O)[C@@H]1C/C=C\\CCCC(=O)O", "values": [{"measurement": "area under concentration-response curve", "setting": "CU-ACC1", "result": 485}, {"measurement": "area under concentration-response curve", "setting": "NCI-H295R", "result": 529}]}
{"smiles": "COC(=O)[C@@H]1CC/2=C/C(=O)CC[C@]2(C)[C@@]34O[C@@H]3C[C@@]5(C)[C@@H](CC[C@@]56CCC(=O)O6)[C@H]14", "values": [{"measurement": "area under concentration-response curve", "setting": "CU-ACC1", "result": 355}, {"measurement": "area under concentration-response curve", "setting": "NCI-H295R", "result": 528}]}
{"smiles": "COC1=CC=CC(=C1/C2=N/CC3=C(N=C(NC4=CC(=C(C=C4)C(O)=O)OC)N=C3)C5=CC=C(Cl)C=C25)F", "values": [{"measurement": "area under concentration-response curve", "setting": "CU-ACC1", "result": 441}, {"measurement": "area under concentration-response curve", "setting": "NCI-H295R", "result": 469}]}
{"smiles": "C[C@@H]1C(=O)O[C@H]2CC34[C@H]5C[C@@H](C(C)(C)C)C36[C@@H](OC(=O)[C@@H]6O)O[C@@]4(C(=O)O5)[C@]21O", "note": "(stereo partly specified)", "values": [{"measurement": "area under concentration-response curve", "setting": "NCI-H295R", "result": 21.9}]}
{"smiles": "OC1=CC=C(C=C1)\\C2=C\\OC3=C(C=CC(=C3)O)C2=O", "values": [{"measurement": "area under concentration-response curve", "setting": "NCI-H295R", "result": 565}]}
{"smiles": "CCN(CCO)CCCC(C)Nc1ccnc2cc(Cl)ccc12", "note": "(stereo unspecified)", "values": [{"measurement": "area under concentration-response curve", "setting": "NCI-H295R", "result": 368}]}
{"smiles": "CC(C)(O)c1coc([S+](=O)([O-])NC(=O)Nc2c3c(cc4c2CCC4)CCC3)c1", "values": [{"measurement": "area under concentration-response curve", "setting": "NCI-H295R", "result": 555}]}
{"smiles": "CC(C)Oc1ccc2c(=O)c(-c3ccccc3)coc2c1", "values": [{"measurement": "area under concentration-response curve", "setting": "NCI-H295R", "result": 559}]}
{"smiles": "O=C(O)CCCCCC(=O)NN=C1CCCC1", "values": [{"measurement": "area under concentration-response curve", "setting": "NCI-H295R", "result": 548}]}
{"smiles": "COc1ccc(-c2cnc3c(-c4cccc5ncccc45)cnn3c2)cc1", "values": [{"measurement": "area under concentration-response curve", "setting": "NCI-H295R", "result": 595}]}
{"smiles": "COc1ncc(-c2ccc3c(Nc4cc(Oc5cc(F)cc(F)c5)cc(C(=O)O)c4)c([S+](=O)([O-])NC4CC4)cnc3c2)c(OC)n1", "values": [{"measurement": "area under concentration-response curve", "setting": "NCI-H295R", "result": 516}]}
{"smiles": "Clc1ccc(Nc2nnc(Cc3ccncc3)c3ccccc23)cc1", "values": [{"measurement": "area under concentration-response curve", "setting": "NCI-H295R", "result": 295}]}
{"smiles": "CCCN(CCC)C(=O)C\\1=C\\C2=CC=C(C=C2\\N=C(N)/C1)C3=CC=C(C=C3)C(=O)N4CCCC4", "values": [{"measurement": "area under concentration-response curve", "setting": "NCI-H295R", "result": 581}]}
{"smiles": "CC1OC(OC/2=C(/OC3=C(C(=CC(=C3)O)O)C2=O)C4=CC=C(O)C=C4)C(O)C(OC(C)=O)C1OC(C)=O", "note": "(stereo unspecified)", "values": [{"measurement": "area under concentration-response curve", "setting": "NCI-H295R", "result": 289}]}
{"smiles": "CCOC(=O)c1ncn2c1CN(C)C(=O)c1cc(F)ccc1-2", "values": [{"measurement": "area under concentration-response curve", "setting": "NCI-H295R", "result": 532}]}
{"smiles": "CCN1CCN(C(=O)N[C@@H](C(=O)N[C@H]2[C@H]3SC\\C(=C(/N3C2=O)C(O)=O)CSC4=NN=N[N]4C)C5=CC=C(O)C=C5)C(=O)C1=O", "values": [{"measurement": "area under concentration-response curve", "setting": "NCI-H295R", "result": 269}]}
{"smiles": "CNC(=O)[C@H]1O[C@@H](n2cnc3c(NCc4cccc(I)c4)nc(Cl)nc32)[C@H](O)[C@@H]1O", "values": [{"measurement": "area under concentration-response curve", "setting": "NCI-H295R", "result": 366}]}
{"smiles": "CNCc1ccc(-c2cc(-c3nc(-c4ccc([S+](=O)([O-])C(C)C)cc4)cnc3N)on2)cc1", "values": [{"measurement": "area under concentration-response curve", "setting": "NCI-H295R", "result": 413}]}
{"smiles": "Cc1c(C)n(Cc2ccc(-c3ccccc3C(=O)O)cc2)c2ccc(C(=O)N[C@@H](C)c3ccc([N+](=O)[O-])cc3)cc12", "values": [{"measurement": "area under concentration-response curve", "setting": "NCI-H295R", "result": 402}]}
{"smiles": "OC1=CC=C(C=C1)\\C2=C\\C(=O)C3=C(O2)C=C(O)C=C3O", "values": [{"measurement": "area under concentration-response curve", "setting": "NCI-H295R", "result": 389}]}
{"smiles": "O=C(O)CCCc1c[nH]c2ccccc12", "values": [{"measurement": "area under concentration-response curve", "setting": "NCI-H295R", "result": 400}]}
{"smiles": "CN(C)Cc1cccc(N/C(=C2\\C(=O)Nc3cc(C(=O)N(C)C)ccc32)c2ccccc2)c1", "values": [{"measurement": "area under concentration-response curve", "setting": "NCI-H295R", "result": 558}]}
{"smiles": "OC[C@H]1O[C@@H](Oc2cc(O)cc(/C=C/c3ccc(O)cc3)c2)[C@H](O)[C@@H](O)[C@@H]1O", "values": [{"measurement": "area under concentration-response curve", "setting": "NCI-H295R", "result": 579}]}
{"smiles": "CN(C)CCNC(=O)COc1c2cccc1Cc1cccc(c1OCC(=O)NCCN(C)C)Cc1cccc(c1OCC(=O)NCCN(C)C)Cc1cccc(c1OCC(=O)NCCN(C)C)C2", "values": [{"measurement": "area under concentration-response curve", "setting": "NCI-H295R", "result": 485}]}
{"smiles": "CCC[S+](=O)([O-])Nc1ccc(F)c(C(=O)c2c[nH]c3ncc(-c4ccc(Cl)cc4)cc23)c1F", "values": [{"measurement": "area under concentration-response curve", "setting": "NCI-H295R", "result": 556}]}
{"smiles": "CC(C)[S+](=O)([O-])c1ccc2nccc(Nc3ccc4scnc4c3)c2c1", "values": [{"measurement": "area under concentration-response curve", "setting": "NCI-H295R", "result": 491}]}
